Data: US9358262B2, “Use of antioxidant-enriched fermented blueberry extracts in the treatment of diabetes” (priority 2003, dated 2016)

Columns and labels:
[1] = tested on: RAW 264.7 gamma NO(−) macrophages; assay: Cell viability of activated macrophages (MTT or resazurin assay); assay type: cell-based, mouse
Description: Cell culture. […] All cultures were incubated at 37° C. in a humidified atmosphere with 5% CO2. Cell number was assessed by trypan blue dye exclusion on a Neubauer hemacytometer. Cells were grown to 90% confluence in sterile cell culture flasks and gently detached using a scraper (Fisher Scientific). For phenolic compound treatment tests, cells were cultured in triplicate in Costar flat-bottom cell culture plates (Corning Inc.). Cells were plated at a density of 6×10^5 cells/well in 24-well cell culture plates and grown for 1 h to allow them to attach to the plate. Compounds to be tested were initially dissolved in 10 μl of DMSO, and then RPMI was added to make solutions in a series of concentrations with a dilution factor of 2. […] Cells were supplemented with the test compounds for 1 h before stimulation with 10 ng/ml lipopolysaccharide (LPS) and 10-50 units/ml interferon gamma (IFN-γ). The activated cells were incubated for 24 h and then supernatants were collected to determine nitrite concentration and/or stored at −80° C. for further use. Control cells were grown under identical conditions but were not exposed to the test compounds or LPS/IFN-γ.
Cell Viability. Cell viability was determined by the MTT assay and/or the resazurin-based in vitro toxicology assay kit, TOX-8 (Sigma). The viability of cells activated only by LPS/IFN-γ was arbitrarily set as 100, and all other viabilities, that is, cells receiving different treatments but within the same 24-well plate, were normalized to that of the LPS/IFN-γ activated control cells.
Inhibition of Nitric Oxide Production. […] Cell viability was assayed to exclude the possibility that the inhibitory effects of phenolic compounds were due to their cytotoxicity. The MTT assay was used for the colorless phenolic compound-treated macrophages, whereas the resazurin assay was used for cranberry and blueberry juice-treated macrophages.

[2] = reference phenolic compounds, Fukumoto and Mazza (2000); cited from earlier work
[3] = NO experiment (Table 7), 31 μM, LPS/IFN-γ control = 100
[4] = NO experiment (Table 7), 63 μM, LPS/IFN-γ control = 100
[5] = NO experiment (Table 7), 125 μM, LPS/IFN-γ control = 100
[6] = TNF-α experiment (Table 8), 100 μM
[7] = TNF-α experiment (Table 8), 200 μM
[8] = TNF-α experiment (Table 8), 300 μM
[9] = TNF-α experiment (Table 8), 400 μM
[10] = TNF-α experiment (Table 8), 500 μM

Row | SMILES | Cell viability [1, 3] | Cell viability [1, 4] | Cell viability [1, 5] | Cell viability [1, 6] | Cell viability [1, 7] | Cell viability [1, 8] | Cell viability [1, 9] | Cell viability [1, 10] | Cell viability ([1]; NO experiment (Table 7), 16 μM, LPS/IFN-γ control = 100) | Cell viability ([1]; NO experiment (Table 7), 250 μM, LPS/IFN-γ control = 100) | Cell viability ([1]; NO experiment (Table 7), 500 μM, LPS/IFN-γ control = 100) | Cell viability ([1]; TNF-α experiment (Table 8), 50 μM) | Antiradical activity [2] | Antiradical power [2]
1 | O=C(/C=C/c1ccc(O)c(O)c1)O[C@@H]1C[C@](O)(C(=O)O)C[C@@H](O)[C@H]1O [Chlorogenic acid] | 105.6 (8.7) % | 106 (5.7) % | 98.5 (7.1) % | 100.6 (1.9) % | 98.9 (2.3) % | 97.1 (1.4) % | 97.3 (1) % | 99 (1.9) % |  |  |  |  |  | 
2 | O=C(O)c1cc(O)c(O)c(O)c1 [Gallic acid] | 111 (6.4) % | 98.9 (0.9) % | 108.5 (0.6) % | 98.3 (2.3) % | 96.7 (0.8) % | 97.6 (2.5) % | 96.1 (2.3) % | 95.6 (1.6) % | 110 (2.2) % | 100.6 (3.7) % | 109.7 (5.4) % | 97.7 (0.4) % | −6.21 (0.60) | 12.50
